Entries after “also recorded” stand apart in the source; their conditions may differ.
Tests used:
[1] = Reducing power by the Somogyi-Nelson method, represented in terms of DE; format: physicochemical; conditions: high-purity preparations, Somogyi-Nelson method
Protocol: The high-purity preparations of the newly formed saccharides were determined for reducing power by the Somogyi-Nelson method and represented in terms of DE.

[2] = Maillard reaction (coloration with glycine, absorbance at 480 nm); format: physicochemical; conditions: 480 nm, with glycine
Protocol: Solutions of 10% saccharide preparation PI, PII, PIII, PIV or PV prepared in Experiment 4 and 1% glycine in 50 mM phosphate buffer (pH7.0) were incubated at 100° C. for 90 minuets, cooled and determined in 1 cm cuvette for absorbance at 480 nm. As control, maltotriose, maltotetraose, maltopentaose, maltohexaose and maltoheptaose which were used as the starting materials were treated similarly as above and determined for absorbance at 480 nm.
10% High-purity trehalose preparation, purity of 99.5%, obtained by the method in Experiment 17 and 1% glycine in 50 mM phosphate buffer (pH7.0) was incubated at 100° C. for 90 minutes, cooled and measured in lcm cuvette for absorbance at 480 nm. As control, glucose and maltose were treated similarly as above and then measured for absorbance at 480 nm.

glucoamylase = experiment: Enzymatic hydrolysis by glucoamylase; format: biochemical
Protocol: Fifty milligrams of the non-reducing saccharide preparation PI, PII, PIII, PIV or PV prepared in Experiment 4 was dissolved in 1 ml of 50 mM acetate buffer (pH4.5), added with one unit of the glucoamylase commercialized by Seikagaku Corp., Tokyo, Japan, incubated at 40° C. for 6 hours for enzymatic hydrolysis and analyzed for degradation products on high-performance liquid chromatography, thus detecting glucose and trehalose as sole products. The noted glucose contents, trehalose contents and their molar ratios were as shown in Table 5.

beta-amylase = experiment: Degradation by beta-amylase; format: biochemical
From the text: Considering the reaction characteristics of glucoamylase, these saccharides very likely bear structures where glucose molecule(s) is bound to trehalose molecule via alpha1,4 or alpha-1,6 linkage: Saccharide PI is a non-reducing saccharide with a glucose polymerization degree of 3 where one glucose molecule is bound to one trehalose molecule; saccharide PII, another non-reducing saccharide with a glucose polymerization degree of 4 where two glucose molecules are bound to one trehalose molecule; saccharide PIII, still another non-reducing saccharide with a glucose polymerization degree of 5 where three glucose molecules are bound to one trehalose molecule; saccharide PIV, still another non-reducing saccharide with a glucose polymerization degree of 6 where four glucose molecules are bound to one trehalose molecule; and saccharide PV, still another non-reducing saccharide with a polymerization degree of 7 where five glucose molecules are bound to one trehalose molecule.

[3] = system: pig pancreas alpha-amylase; experiment: Degradation by pig pancreas alpha-amylase; format: biochemical
Protocol: (§1) The non-reducing saccharide preparations PI, PII, PIII, PIV and PV as substrates prepared in Experiment 4 were subjected to pig pancreas alpha-amylase, rice alpha-glucosidase and acetone-pulverized rat small intestine enzyme, all of which were products of Sigma Chemical Co., St Louis, Mo., USA, and the degradation products were analyzed on high-performance liquid chromatography for saccharide composition. The reaction by alpha-amylase was carried out by dissolving 10 mg of either substrate in 1 ml of 50 mM phosphate buffer (pH6.9), adding thereto one unit of alpha-amylase and incubating at 37° C. for 18 hours. The reaction by alpha-glucosidase was conducted similarly as in the case of alpha-amylase except that 50 mM acetate buffer (pH4.0) was used. In the case of acetone-pulverized rat small intestine enzyme, the reaction was conducted similarly as in the case of alpha-amylase except that 50 mM maleic acid buffer (pH6.0) was used.

rice alpha-glucosidase = experiment: Degradation by rice alpha-glucosidase; format: biochemical
Protocol: as §1

[4] = system: acetone-pulverized rat small intestine enzyme; experiment: Degradation by acetone-pulverized rat small intestine enzyme; format: biochemical
Protocol: as §1

pig kidney trehalase = experiment: Degradation by pig kidney trehalase; format: biochemical; conditions: trehalose, or trehalose formed from PI-PV; pH5.7, 37° C., 18 hours for the latter
Protocol: In order to purify trehalose from respective reaction products, they were decolored, deionized, concentrated and subjected to column fractionation on a strongly-acidic cation exchange of sodium form "XT-1016", followed by recovering high-purity fractions with trehalose contents of 97% or higher. The fractions were then concentrated to about 65% and allowed to standing at 25° C. for 2 days to crystallize out crystalline trehalose hydrate which was then separated and dried in vacuo to obtain a high-purity preparation with a trehalose content of 99% or higher. The yields against respective starting substrates on dry solid basis were as follows: from glycosyl trehalose, 9.5%; from maltosyl trehalose, 14.9%; from maltotriosyl trehalose, 16.0%; from maltotetraosyl trehalose, 18.5%; and from maltopentaosyl trehalose, 17.7%. […] As evident from the above results, the saccharides formed by subjecting alpha-glycosyl trehaloses to the trehalose-releasing enzyme were identified to be trehalose.

mice = experiment: Acute toxicity test, oral administration in mice; format: in vivo
Protocol: Acute toxicity tests were conducted on the non-reducing saccharide preparations PI, PII, PIII, PIV and PV prepared in Experiment 4, where they were orally administered to 7 week-old dd mice. […] Thus the LD50 of these saccharides was at least 50 g/kg or higher.
An acute toxicity test was conducted on a high-purity trehalose preparation obtained by the method in Experiment 17, purity of 99.5%, where it was orally administered in mice. […] Thus its LD50 would be briefly 50 g/kg or higher.

## OC[C@H]1O[C@H](O[C@H]2O[C@H](CO)[C@@H](O[C@H]3O[C@H](CO)[C@@H](O[C@H]4O[C@H](CO)[C@@H](O[C@H]5O[C@H](CO)[C@@H](O[C@H]6O[C@H](CO)[C@@H](O[C@H]7O[C@H](CO)[C@@H](O)[C@H](O)[C@H]7O)[C@H](O)[C@H]6O)[C@H](O)[C@H]5O)[C@H](O)[C@H]4O)[C@H](O)[C@H]3O)[C@H](O)[C@H]2O)[C@H](O)[C@@H](O)[C@@H]1O [PV, alpha-maltopentaosyl trehalose]
[1]
  DE of saccharide preparation: 0.23
[2]
  Coloration degree relative to maltooligosaccharides as material: 3-6%
glucoamylase
  Degradation by glucoamylase (in words): five glucose molecules and one trehalose molecule
glucoamylase; degradation product by glucoamylase
  Molar ratio (glucose/trehalose): 5.11
glucoamylase; pH4.5, 40° C., 6 hours
  Glucose in degradation product by glucoamylase: 72.9%
  Trehalose in degradation product by glucoamylase: 27.1%
beta-amylase
  Degradation by beta-amylase (in words): two maltose molecules and one saccharide PI molecule
[3]
  Degradation by alpha-amylase (in words): degraded by alpha-amylase into smaller oligosaccharides; also recorded: yields non-reducing saccharide PII and maltotriose as predominant products
[3]; pH6.9, 37° C., 18 hours
  G1 (glucose) in degradation product by alpha-amylase: 1.0%
  G2 (maltose) in degradation product by alpha-amylase: 8.6%
  G3 (maltotriose) in degradation product by alpha-amylase: 35.3%
  PI in degradation product by alpha-amylase: 10.2%
  PII in degradation product by alpha-amylase: 44.9%
Rice alpha-glucosidase
  Degradation by alpha-glucosidase (in words): degradable
Rice alpha-glucosidase; pH4.0, 37° C., 18 hours
  Glucose in degradation product by alpha-glucosidase: 71.4%
  Others in degradation product by alpha-glucosidase: 0.3%
  Trehalose in degradation product by alpha-glucosidase: 28.3%
[4]
  Degradation by acetone-pulverized rat small intestine enzyme (in words): degradable
[4]; pH6.0, 37° C., 18 hours
  Glucose in degradation product by acetone-powdered rat small intestine enzyme: 73.4%
  Others in degradation product by acetone-powdered rat small intestine enzyme: 0.1%
  Trehalose in degradation product by acetone-powdered rat small intestine enzyme: 26.5%
Pig kidney trehalase
  Degradation by pig kidney trehalase (in words): degradable into glucose by the trehalase
mice; mouse, in vivo, po
  LD50: at least 50 g/kg
mice; oral, mice
  Animal death at the possible highest dose: no animal death was observed

— patent US5919668A, “Non-reducing saccharide and its production and use” (Kabushiki Kaisha Hayashibara Seibutsu Kagaku Kenkyujo, priority 1994, dated 1999)
